These results are taken from PubChem BioAssay AID1996.

The kinetic solubility is the concentration staying in solution when a stock, usually in DMSO, is diluted into the medium.

The structures appear in SMILES notation. ≈ marks a conversion by molar mass, not a printed value. Some results are limits rather than exact numbers.

For the series the following is noted: buffer; pH 7.4; 200.0 µM.
`O=C(NC1CCS(=O)(=O)C1)c1ccc(Br)s1` (configuration not stated): the solubility (kinetic) was more than 48.6 µg/mL.

Compound `COc1ccc(CNc2ccc(Cl)cc2)cc1Cn1ccnc1` returned a kinetic solubility of 31.1 µg/mL (≈ 94.9 µM).

The compound `Cn1c(CNC(=O)OC(C)(C)C)n[nH]c1=S` displayed a solubility (kinetic) of more than 36.6 µg/mL.

Regarding `CCOc1ccccc1NC(=O)CCn1ccnc1`, the kinetic solubility is 37 µg/mL (≈ 143 µM).

As for `COCCCNC(=O)c1ccc(NC(C)=O)cc1`, the kinetic solubility was more than 37.5 µg/mL.

`CCO.C[C@H]1c2cccc(O)c2C(O)=C2C(=O)[C@]3(O)C(O)=C(C(N)=O)C(=O)[C@@H](N(C)C)[C@@H]3[C@@H](O)[C@@H]21.Cl.O` came in with a kinetic solubility of more than 76.9 µg/mL.

For the compound `Cc1csc(NC(=O)c2cccc([N+](=O)[O-])c2C(=O)O)n1`, the kinetic solubility is more than 46.1 µg/mL.

In turn, `Cc1cc2c(OCC(O)CNCc3ccco3)cccc2[nH]1` (configuration not stated) displayed a solubility (kinetic) of 43.4 µg/mL (≈ 144 µM).

`O=C(CCc1ccccc1)Nc1sc2c(c1C(=O)O)CCCC2` came in with a kinetic solubility of more than 49.4 µg/mL.

For `COC(=O)C(C)NC(=O)COc1ccc2ccccc2c1` (configuration not stated), the solubility (kinetic) was more than 43.1 µg/mL.

`COc1ccc(C(=O)Nc2cccc(S(=O)(=O)N(C)C)c2)cc1S(=O)(=O)N1CCOCC1` returned a kinetic solubility of 12.3 µg/mL (≈ 25.4 µM).

On to `COc1ccc(S(=O)(=O)N2CCN(C(=O)C3CCCCC3)CC2)cc1`, for which the solubility (kinetic) was 53.7 µg/mL (≈ 147 µM).

On to `O=C(O)C(=O)O.Oc1ccccc1CNCCCN1CCOCC1`, for which the solubility (kinetic) stood at 41.5 µg/mL.

In turn, `Cl.Nc1cnn(Cc2ccc(F)cc2)c1` returned a kinetic solubility of more than 34.2 µg/mL.

`Cc1cc(=O)oc2c(C(=O)c3ccccc3)c(OCC(N)=O)ccc12` registered a kinetic solubility of 5.6 µg/mL (≈ 16.6 µM).

With `COc1ccc(C(=O)COc2ccc(C)cc2NC(C)=O)cc1`, the solubility (kinetic) came out at 36.7 µg/mL (≈ 117 µM).

Turning to `Cc1cc(NC(=O)c2ccc(COc3ccccc3Cl)o2)no1`, the kinetic solubility is less than 0.4 µg/mL.

For the compound `CS(=O)(=O)c1ccc(C(=O)OC2CCOC2=O)cc1[N+](=O)[O-]` (configuration not stated), the kinetic solubility was more than 49.4 µg/mL.

Take `CS(=O)(=O)N(CC(=O)NC1CCCCC1)c1cccc(F)c1`: the solubility (kinetic) is 48.1 µg/mL (≈ 146 µM).

In turn, `CC(C)(C)N1C(=O)NC(=O)/C(=C\c2ccc3c(c2)CCN3CCCCl)C1=O` had a solubility (kinetic) of 38 µg/mL (≈ 97.5 µM).

As to `O=C(NCc1ccc(F)cc1)c1cc2ccccc2o1`, the kinetic solubility was determined as 34.9 µg/mL (≈ 130 µM).

Turning to `O=C(Nc1ccc2c(c1)CCC2)Nc1ccccc1Cl`, the kinetic solubility was less than 0.3 µg/mL.

Compound `COCC1CCN(C(=O)c2oc3c(F)cccc3c2C)C1` (configuration not stated) returned a kinetic solubility of 37.3 µg/mL (≈ 128 µM).

The compound `CC(C)=Cc1oc2ccc([N+](=O)[O-])cc2c1N1CCOCC1` came in with a kinetic solubility of less than 0.3 µg/mL.

`c1cc(CNCCc2ccc3c(c2)OCO3)ccn1` yielded a kinetic solubility of 28.5 µg/mL (≈ 111 µM).

As for `CS(=O)(=O)Nc1ccccc1N=C(c1ccccc1)c1ccccc1`, the kinetic solubility turned out to be 23.2 µg/mL (≈ 66.2 µM).

Regarding `O=S(=O)(NCCc1ccccc1)c1ccc(Br)s1`, the kinetic solubility was 27.5 µg/mL (≈ 79.4 µM).

On to `N#CCC(=O)Nc1ccc(C(=O)OCC(=O)NC(=O)NCc2ccco2)cc1`, for which the kinetic solubility stood at 17.4 µg/mL (≈ 45.3 µM).

`O=C(Nc1nccs1)c1cc2cc(Cl)ccc2oc1=O` showed a kinetic solubility of 1.5 µg/mL (≈ 4.89 µM).

`COC(=O)c1cc(C)sc1NC(=O)c1ccco1` came in with a kinetic solubility of less than 0.6 µg/mL.

`Cc1cc(C)cc(N(CC(=O)N2CCCC2)S(C)(=O)=O)c1` displayed a kinetic solubility of more than 46.6 µg/mL.

Compound `COc1ccccc1N1C(=O)CSC1=S` returned a kinetic solubility of 3.4 µg/mL (≈ 14.2 µM).

The compound `NC(=O)c1ccccc1N1CCCCC1` yielded a kinetic solubility of more than 30.6 µg/mL.

For `CCn1cc(S(=O)(=O)N2CCc3ccccc3C2)cn1`, the solubility (kinetic) was more than 43.7 µg/mL.

Compound `N#Cc1cccc(NS(=O)(=O)c2ccccc2Cl)c1` registered a kinetic solubility of more than 43.9 µg/mL.

As to `NC(=O)c1ccccc1NC(=O)CSC1=NCCS1`, the kinetic solubility was more than 44.3 µg/mL.

With `CCOc1ccc(C(=O)OCC(=O)N2CCCC2)cc1`, the solubility (kinetic) is more than 41.6 µg/mL.

`CSC1=C(C#N)C(=O)NC(c2ccc(Cl)cc2)S1` (configuration not stated) showed a kinetic solubility of 11.9 µg/mL (≈ 40.1 µM).

In the case of `Cc1ccc(NC(=O)CN2C(=O)c3ccccc3S2(=O)=O)cc1C`, the kinetic solubility is 5.9 µg/mL (≈ 17.1 µM).

On to `Cc1ccc(C(=O)N2CCCC(Nc3ccc(F)c(F)c3)C2)cn1` (configuration not stated), for which the kinetic solubility is more than 49.7 µg/mL.

In the case of `O=S(=O)(c1cccc2ccccc12)N1CCCCC1`, the kinetic solubility was determined as 17.3 µg/mL (≈ 62.8 µM).

As to `COC(=O)c1ccc(CNC(=O)c2ccc3c(c2)OCCO3)cc1`, the solubility (kinetic) was determined as 45.5 µg/mL (≈ 139 µM).

With `CC(=O)c1cccc(NC(=O)NC2CCCCCCC2)c1`, the solubility (kinetic) is 2.5 µg/mL (≈ 8.67 µM).

`O=C(O)c1c(C(=O)O)c(-c2ccc(F)cc2)n2c1CCC2` yielded a solubility (kinetic) of more than 43.4 µg/mL.

Compound `COc1cc(OC)cc(C(=O)NC(=S)N2CCCCCC2)c1` yielded a kinetic solubility of 43.6 µg/mL (≈ 135 µM).

Compound `COc1ccnc2c1c(=O)n(Cc1c(F)cccc1Cl)c(=O)n2C` displayed a solubility (kinetic) of 9.8 µg/mL (≈ 28 µM).

Turning to `CC(C)CCOc1ccc(C2(C)NC(=O)NC2=O)cc1` (configuration not stated), the solubility (kinetic) was determined as 38.5 µg/mL (≈ 139 µM).

For the compound `Cc1ccc(S(=O)(=O)NCCC2=CCCCC2)cc1`, the kinetic solubility stood at 23 µg/mL (≈ 82.3 µM).

The compound `O=C(CN1CCN(C(=O)c2ccco2)CC1)Nc1ccccc1` showed a kinetic solubility of more than 47 µg/mL.

Turning to `COCCNC(=O)Cn1cc(C=C2C(=O)NC(=O)NC2=O)c2ccccc21`, the solubility (kinetic) was determined as 6.3 µg/mL (≈ 17 µM).

As for `CS(=O)(=O)c1ccc(Cl)c(NC(=O)Nc2ccccc2)c1`, the solubility (kinetic) stood at 5.1 µg/mL (≈ 15.7 µM).

As to `O=C(OCc1cncs1)c1ccccc1Cl`, the solubility (kinetic) was more than 38.1 µg/mL.
